# Experimental data reported in ChEMBL document CHEMBL1201862, “PubChem BioAssay data set” (2004).
# Activity calls are given as the source filed them.
# Key:
# [1] = biological target: T1, Calpain-2 catalytic subunit (Sus scrofa, UniProt P43367); experiment: pig calpain II inhibitor potency, dose response, biochemical, fluorogenic peptide substrate (AID 1420); format: functional
# T1 sequence (P43367 whole entry): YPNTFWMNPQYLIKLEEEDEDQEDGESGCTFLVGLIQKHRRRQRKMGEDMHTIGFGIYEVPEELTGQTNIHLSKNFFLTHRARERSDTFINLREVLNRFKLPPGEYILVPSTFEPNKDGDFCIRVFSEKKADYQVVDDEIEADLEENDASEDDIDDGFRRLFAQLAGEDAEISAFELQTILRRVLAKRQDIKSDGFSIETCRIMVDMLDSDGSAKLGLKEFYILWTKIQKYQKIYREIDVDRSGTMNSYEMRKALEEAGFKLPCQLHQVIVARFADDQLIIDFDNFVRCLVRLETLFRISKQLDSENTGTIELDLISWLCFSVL
# [2] = Luminescence Cell-Based Dose Confirmation HTS to Identify Inhibitors of Platelet Dense Granule Release. [Related pubchem assays: 1663 (Primary HTS), 1678 (Summary of Project)]; format: functional
# [3] = biological target: Luciferin 4-monooxygenase (Photinus pyralis, UniProt P08659); experiment: firefly luciferase enzyme inhibitors, dose response, biochemical, luminescence (AID 1891)
# Chain of Luciferin 4-monooxygenase (P08659 whole entry): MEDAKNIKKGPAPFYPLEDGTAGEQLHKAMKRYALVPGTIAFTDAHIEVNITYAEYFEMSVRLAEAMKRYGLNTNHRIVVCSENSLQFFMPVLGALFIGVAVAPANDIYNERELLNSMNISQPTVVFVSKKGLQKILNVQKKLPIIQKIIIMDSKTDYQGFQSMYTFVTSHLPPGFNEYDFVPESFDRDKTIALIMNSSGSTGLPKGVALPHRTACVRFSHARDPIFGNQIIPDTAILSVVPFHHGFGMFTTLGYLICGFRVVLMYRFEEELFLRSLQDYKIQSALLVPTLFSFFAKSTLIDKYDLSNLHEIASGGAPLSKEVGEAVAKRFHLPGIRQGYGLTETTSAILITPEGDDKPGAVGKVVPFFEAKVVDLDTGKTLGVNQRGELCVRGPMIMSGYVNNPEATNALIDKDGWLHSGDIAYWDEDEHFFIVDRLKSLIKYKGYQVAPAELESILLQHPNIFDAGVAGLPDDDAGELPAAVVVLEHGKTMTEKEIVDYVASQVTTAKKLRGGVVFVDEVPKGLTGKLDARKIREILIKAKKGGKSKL
# [4] = system: H9c2; experiment: cells; format: functional, cell-based; conditions: Rattus norvegicus, H9c2, Myocardium;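 note: confirmatory concentration-response retest of ultra-high-throughput screening hits for modulation of myocardial damage; cell death induced by hydrogen peroxide oxidative stress; compound pretreatment for 60 min then peroxide exposure for 2 h; potency is for protecting the cells against peroxide damage rather than for killing them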
# [5] = HEp-2 cell cytotoxicity, dose response, cytotoxicity control for RSV inhibitor project, HTS (AID 2410); format: functional; conditions: human respiratory syncytial virus
# [6] = Luminescence Cell-Based Dose Retest to Confirm Inhibitors of Cancer Stem Cells. [Related pubchem assays (depositor defined):AID2717, AID2721]; format: functional; conditions: Homo sapiens
# [7] = system: H4; experiment: Luminescence Cell-Based Dose Response HTS to Identify Activators of 5'UTR Stem-Loop Driven Prion Protein mRNA Translation in H4 Neuroglioblastoma Cells. [Related pubchem assays: 1829 (Project Summary), 1814 (Primary HTS)]; format: functional; conditions: Homo sapiens
# [8] = Luminescence Cell-Based Dose Response HTS to Identify Activators of Luciferase Translation or Activity in H4 […] Cells. [Related pubchem assays: 1829 (Project Summary), 1814 (Primary HTS)]; format: functional
# [9] = biological target: T2, Corticotropin-releasing factor receptor 2/Corticotropin-releasing factor-binding protein (Homo sapiens, UniProt P24387+Q13324); experiment: Dose Response confirmation of uHTS hits for small molecule antagonists of the CRF-binding protein and CRF-R2 receptor complex.; format: functional; conditions: read-out: IC50_Mean
# T2 sequence (Q13324 whole entry): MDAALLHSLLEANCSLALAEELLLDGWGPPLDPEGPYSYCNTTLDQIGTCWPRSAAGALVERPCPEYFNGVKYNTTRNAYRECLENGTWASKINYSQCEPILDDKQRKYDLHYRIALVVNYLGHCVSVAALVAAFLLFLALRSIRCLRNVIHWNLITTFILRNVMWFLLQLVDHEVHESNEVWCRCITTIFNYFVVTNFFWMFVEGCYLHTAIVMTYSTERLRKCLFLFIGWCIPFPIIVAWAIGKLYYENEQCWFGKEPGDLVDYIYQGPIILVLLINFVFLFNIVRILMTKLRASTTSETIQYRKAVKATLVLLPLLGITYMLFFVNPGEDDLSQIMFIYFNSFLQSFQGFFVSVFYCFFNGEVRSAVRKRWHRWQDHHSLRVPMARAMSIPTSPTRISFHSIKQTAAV
# T2 sequence (P24387 whole entry): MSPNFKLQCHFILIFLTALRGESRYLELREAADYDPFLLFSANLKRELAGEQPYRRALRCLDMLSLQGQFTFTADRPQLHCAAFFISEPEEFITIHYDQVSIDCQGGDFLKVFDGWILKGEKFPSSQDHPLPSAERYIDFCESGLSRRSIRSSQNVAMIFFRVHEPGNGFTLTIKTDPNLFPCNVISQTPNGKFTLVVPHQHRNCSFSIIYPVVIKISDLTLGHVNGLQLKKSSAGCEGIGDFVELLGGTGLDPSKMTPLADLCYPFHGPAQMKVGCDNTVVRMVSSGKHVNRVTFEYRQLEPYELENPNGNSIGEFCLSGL
# [10] = biological target: T2, Corticotropin-releasing factor receptor 2/Corticotropin-releasing factor-binding protein; experiment: activators of CRF receptor 2 with binding protein – uHTS hits, confirmation (AID 602473); format: functional; conditions: read-out: EC50_Mean
# [11] = inhibitors of intracellular T. cruzi replication, confirmation, NIH3T3 host cells, beta-gal luminescence (AID 2044); format: functional, cell-based;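 note: intracellular parasites grown in NIH/3T3 mouse fibroblasts as host cells; luminescent beta-galactosidase reporter signal from transgenic T. cruzi replicating inside host cells; inhibitors lower the luminescence signal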
# [12] = cytotoxicity toward NIH3T3 fibroblasts, dose response, counter-screen, cell-based, ATP luminescence, mouse fibroblasts (AID 2010); format: functional;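 note: cells exposed to compound for about 90 hours before reading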
# 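Throughout, for AC50: cells exposed to compound for roughly 70 hours or longer before luminescence read.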
compound,measurement,setting,value
COc1ccccc1NC(=O)/C(=C/c1cccs1)NC(=O)c1ccco1,IC50,[1],26 µM (not active)
COc1ccc(-c2nnc(SC(C)C(=O)Nc3cccc(Cl)c3)o2)cc1 (stereo unspecified),IC50,[1],11.7 µM (not active)
COc1ccc(OC)c(Nc2nc(NCc3ccco3)c3ccccc3n2)c1,EC50,[2],49 µM (active)
same,EC50,[3],18.7 µM (active)
Fc1ccc(-c2ccc(-c3nn4c(-c5ccco5)nnc4s3)o2)cc1,IC50,[4],36.1 µM (inactive)
COc1ccccc1C(=O)Nc1ccc(S(=O)(=O)N(C)c2ccccc2)cc1,CC50,[5],29.4 µM (active)
CC(C)CCNc1nc(-c2ccco2)c2c(c1C#N)CCCC2,AC50,[6],10.4 µM (active)
Cc1ccc(OCCn2cc(/C=C(\C#N)C(=O)NCC3CCCO3)c3ccccc32)cc1 (stereo unspecified),CC50,[5],38.7 µM (active)
COc1ccc(/C=C/C2=NC(=C\N(C)C)/C(=O)O2)cc1,EC50,[7],8.24 µM (active)
same,EC50,[8],11.2 µM (active)
COc1ccc(NC(=O)CC2C(=O)N(C)C(=S)N2CCc2ccccc2)cc1 (stereo unspecified),CC50,[5],18 µM (active)
Cc1cccc(OCCNc2ccc([N+](=O)[O-])cn2)c1,IC50,[1],> 50 µM (not active)
CC(CCc1ccco1)NC(=O)CCc1nnc2ccc(NCc3ccccc3)nn12 (stereo unspecified),IC50,[9],> 47.1 µM (inactive)
same,EC50,[2],> 112 µM (not active)
same,EC50,[3],> 112 µM (not active)
same,EC50,[10],> 53 µM (inactive)
CCN(CC)c1nc(SCCOC(=O)Nc2ccccc2)nc(N(CC)CC)n1,EC50,[11],1.73 µM (active)
same,EC50,[12],> 60 µM (not active)
same,AC50,[6],2.79 µM (active)
COc1cc(C(=O)N2CCN(c3ccc([N+](=O)[O-])cc3)CC2)ccc1OCc1c(C)noc1C,EC50,[2],> 112 µM (not active)
same,EC50,[3],40.2 µM (active)
O=C(COc1ccc(Br)cc1CO)Nc1ccccc1F,CC50,[5],35.2 µM (active)
O=C(/C=C/c1c(F)cccc1Cl)Nc1nc2ccccc2[nH]1,EC50,[7],10.4 µM (active)
same,EC50,[8],0.14 µM (inconclusive)
O=C(CSc1ccc(-c2ccccc2)nn1)N1CCCCC1,EC50,[7],65.2 µM (active)
same,EC50,[8],25.4 µM (active)
CCN1CCN(c2nc(O)c3c(n2)CCCC3)CC1,IC50,[4],> 79 µM (inactive)
O=C(O)c1ccc(-c2noc(-c3ccccc3F)n2)cc1,EC50,[2],1.6 µM (active)
same,EC50,[3],1.45 µM (active)
CC(=O)Nc1ccccc1C(=O)C(=O)Nc1cccc(C(=O)NCC2CCCO2)c1 (stereo unspecified),IC50,[1],7.39 µM (not active)
O=C(c1cc(COc2c(F)cccc2F)on1)N1CCC(c2ccccc2Cl)C1 (stereo unspecified),IC50,[1],4.48 µM (not active)
CCOc1ccc(CC(=O)Nc2c(C(N)=O)oc3ccc(Br)cc23)cc1OCC,IC50,[4],> 79 µM (inactive)
O=c1c2ccccc2nc(-c2ccc(Cl)c(Cl)c2)n1O,IC50,[4],> 79 µM (inactive)
CC(Sc1nnc(-c2ccc(O)cc2)o1)C(=O)Nc1cccc2ccccc12 (stereo unspecified),IC50,[1],< 0.4 µM (not active)
CCCCC(=O)Nc1nc(C)c(-c2csc(Nc3cc(Cl)ccc3OC)n2)s1,CC50,[5],26.5 µM (active)
[2H]c1c([2H])c([2H])c(-c2nc(N3CCCCCC3)sc2C(=O)c2ccccc2)c([2H])c1[2H],CC50,[5],41.6 µM (active)
